Source: PubChem BioAssay AID1845216 (Molecular Pharmacology Branch, DTP, NCI, 2023)
Values joined by “and” are separate entries in the source; they are usually repeats but may differ in a detail not shown here. Equal entries are not always repeated.

System: SW 982 tumor spheroid viability
Assay: Anticancer human tumor SW 982 cell line growth inhibition;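 also: spheroids exposed to compound for 7 days before readout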
Details: spheroids with HUVEC and MSC; for viability, T/C: stronger effect = lower value
Outline: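 Complex tumor spheroids combined malignant cells with endothelial cells and mesenchymal stem cells. DNA-damaging drugs and DNA repair inhibitors were tested alone and in combination, at half-log dilutions down from clinical Cmax (top 10 microM if Cmax unknown), 0.25% DMSO final.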

`CC1COCCN1c1cc(-c2ccnn2C)c2ccnc(-c3ccn[nH]3)c2n1` (configuration not stated) + CC[C@@]1(O)C(=O)OCc2c1cc1n(c2=O)Cc2cc3c(CN(C)C)c(O)ccc3nc2-1 was tested, and the IC50 (curve of first compound, second compound 0.003 µM) was less than 31.6 nM, the IC50 (curve of first compound, second compound 0.00949 µM) was less than 31.6 nM and the IC50 (curve of first compound, second compound 0.03 µM) was less than 31.6 nM. The IC50 (curve of first compound, second compound 0.0949 µM) was less than 31.6 nM, the IC50 (curve of first compound, second compound 0.3 µM) was less than 31.6 nM and the viability, T/C (second compound 0.003 µM, first compound 0.0316 µM) was 24.8%. It also gave a viability, T/C (second compound 0.003 µM, first compound 0.1 µM) of 17.2%, a viability, T/C (second compound 0.003 µM, first compound 0.316 µM) of 12.2% and a viability, T/C (second compound 0.003 µM, first compound 1 µM) of 7.73%. The viability, T/C (second compound 0.003 µM, first compound 3.16 µM) was 9.86%, the viability, T/C (second compound 0.003 µM, first compound 10 µM) was 13.6% and the viability, T/C (second compound 0.00949 µM, first compound 0.0316 µM) was 16.3%. The viability, T/C (second compound 0.00949 µM, first compound 0.1 µM) was 14.9%, the viability, T/C (second compound 0.00949 µM, first compound 0.316 µM) was 10.3% and the viability, T/C (second compound 0.00949 µM, first compound 1 µM) was 8.21%. It also gave a viability, T/C (second compound 0.00949 µM, first compound 3.16 µM) of 9.89%, a viability, T/C (second compound 0.00949 µM, first compound 10 µM) of 12.6% and a viability, T/C (second compound 0.03 µM, first compound 0.0316 µM) of 18.2%. The viability, T/C (second compound 0.03 µM, first compound 0.1 µM) was 10.3%, the viability, T/C (second compound 0.03 µM, first compound 0.316 µM) was 8.15% and the viability, T/C (second compound 0.03 µM, first compound 1 µM) was 7.1%. For the same molecule, the viability, T/C (second compound 0.03 µM, first compound 3.16 µM) was 10.2%, the viability, T/C (second compound 0.03 µM, first compound 10 µM) was 13.3% and the viability, T/C (second compound 0.0949 µM, first compound 0.0316 µM) was 12.1%. For the same molecule, the viability, T/C (second compound 0.0949 µM, first compound 0.1 µM) was 11.4%, the viability, T/C (second compound 0.0949 µM, first compound 0.316 µM) was 9.49% and the viability, T/C (second compound 0.0949 µM, first compound 1 µM) was 8.79%. For the same molecule, the viability, T/C (second compound 0.0949 µM, first compound 3.16 µM) was 9.28%, the viability, T/C (second compound 0.0949 µM, first compound 10 µM) was 12% and the viability, T/C (second compound 0.3 µM, first compound 0.0316 µM) was 12.1%. It also gave a viability, T/C (second compound 0.3 µM, first compound 0.1 µM) of 8.63%, a viability, T/C (second compound 0.3 µM, first compound 0.316 µM) of 7.14% and a viability, T/C (second compound 0.3 µM, first compound 1 µM) of 6.54%. The viability, T/C (second compound 0.3 µM, first compound 3.16 µM) was 7.28% and the viability, T/C (second compound 0.3 µM, first compound 10 µM) was 7.84%.

In the case of `[2H]c1nc(C)nc([2H])c1-c1cc(NC[C@@H](C)c2cccc3c(C(=O)NC)ccnc23)ncn1`, the viability, T/C (compound 0.0316 µM) is reported as 80.2% and 102% and 103%, the viability, T/C (compound 0.1 µM) is reported as 91.6% and 101% and 97.5% and the viability, T/C (compound 0.316 µM) is reported as 94% and 103% and 107%. For the same molecule, the viability, T/C (compound 1 µM) was 96.9% and 96.7% and 114%, the viability, T/C (compound 3.16 µM) was 103% and 101% and 111% and the viability, T/C (compound 10 µM) was 103% and 94.8% and 108%. For the same molecule, the IC50 (curve of compound) was greater than 10000 nM.

Molecule `Cc1sc2c(c1C)C(c1ccc(Cl)cc1)=NC(CC(=O)Nc1ccc(O)cc1)c1nnc(C)n1-2` (configuration not stated) + Cn1nnc2c(C(N)=O)ncn2c1=O has an IC50 (curve of first compound, second compound 1 µM) of 294 nM, an IC50 (curve of first compound, second compound 3.16 µM) of 240 nM and an IC50 (curve of first compound, second compound 10 µM) of 158 nM. For the same molecule, the IC50 (curve of first compound, second compound 31.6 µM) was 106 nM, the IC50 (curve of first compound, second compound 100 µM) was 92.2 nM and the viability, T/C (second compound 1 µM, first compound 0.00949 µM) was 113%. It also gave a viability, T/C (second compound 1 µM, first compound 0.03 µM) of 101%, a viability, T/C (second compound 1 µM, first compound 0.0949 µM) of 78.2% and a viability, T/C (second compound 1 µM, first compound 0.3 µM) of 47.6%. For the same molecule, the viability, T/C (second compound 1 µM, first compound 0.949 µM) was 35%, the viability, T/C (second compound 1 µM, first compound 3 µM) was 25% and the viability, T/C (second compound 3.16 µM, first compound 0.00949 µM) was 103%. It also gave a viability, T/C (second compound 3.16 µM, first compound 0.03 µM) of 104%, a viability, T/C (second compound 3.16 µM, first compound 0.0949 µM) of 76.6% and a viability, T/C (second compound 3.16 µM, first compound 0.3 µM) of 43.8%. For the same molecule, the viability, T/C (second compound 3.16 µM, first compound 0.949 µM) was 27.7%, the viability, T/C (second compound 3.16 µM, first compound 3 µM) was 21.4% and the viability, T/C (second compound 10 µM, first compound 0.00949 µM) was 87.8%. It also gave a viability, T/C (second compound 10 µM, first compound 0.03 µM) of 81%, a viability, T/C (second compound 10 µM, first compound 0.0949 µM) of 60.8% and a viability, T/C (second compound 10 µM, first compound 0.3 µM) of 36.4%. It also gave a viability, T/C (second compound 10 µM, first compound 0.949 µM) of 21.6%, a viability, T/C (second compound 10 µM, first compound 3 µM) of 17.8% and a viability, T/C (second compound 31.6 µM, first compound 0.00949 µM) of 76.2%. It also gave a viability, T/C (second compound 31.6 µM, first compound 0.03 µM) of 67.6%, a viability, T/C (second compound 31.6 µM, first compound 0.0949 µM) of 53.9% and a viability, T/C (second compound 31.6 µM, first compound 0.3 µM) of 27.8%. It also gave a viability, T/C (second compound 31.6 µM, first compound 0.949 µM) of 19.7%, a viability, T/C (second compound 31.6 µM, first compound 3 µM) of 14.7% and a viability, T/C (second compound 100 µM, first compound 0.00949 µM) of 67.7%. For the same molecule, the viability, T/C (second compound 100 µM, first compound 0.03 µM) was 66.4%, the viability, T/C (second compound 100 µM, first compound 0.0949 µM) was 49.6% and the viability, T/C (second compound 100 µM, first compound 0.3 µM) was 21.2%. It also gave a viability, T/C (second compound 100 µM, first compound 0.949 µM) of 16.1% and a viability, T/C (second compound 100 µM, first compound 3 µM) of 20.6%.
